Values joined by “and” are separate entries in the source; they are usually repeats but may differ in a detail not shown here. Identical values can stand only once. Like-named read-outs stand apart in the source and are kept apart here.
Assays:
HBV rcDNA = experiment: Dual agent combination in HepDE19 cells, rcDNA by Quantigene 2.0 bDNA assay (Examples 5-8); type: cell-based, HBV; HepDE19 (HepG2 human hepatocarcinoma derived); conditions: for inhibition at 0.009 µM / inhibition at 0.083 µM / inhibition at 0.75 µM / inhibition at 0.01 µM / inhibition at 0.02 µM / inhibition at 0.039 µM / inhibition at 0.156 µM / inhibition at 1.25 µM / EC50 / inhibition at 0.002 µM / inhibition at 0.007 µM / inhibition at 0.06 µM / inhibition at 0.001 µM / inhibition at 0.003 µM / inhibition at 0.005 µM / inhibition at 0.04 µM / inhibition at 0.08 µM / inhibition at 0.16 µM / inhibition at 0.32 µM: Hepatitis B virus; for inhibition at 0.039 µM: TDF 0.039 μM alone; for inhibition at 0.156 µM: TDF 0.156 μM alone; for inhibition at 1.25 µM: TDF 1.250 μM alone; for inhibition at 0.002 µM: TAF 0.002 μM alone; for inhibition at 0.007 µM: TAF 0.007 μM alone; for inhibition at 0.06 µM: TAF 0.060 μM alone; for inhibition at 0.001 µM: TAF 0.001 μM alone; for inhibition at 0.003 µM: TAF 0.003 μM alone; for inhibition at 0.005 µM: TAF 0.005 μM alone; for inhibition at 0.04 µM: TAF 0.040 μM alone; for inhibition at 0.08 µM: TAF 0.080 μM alone; for inhibition at 0.16 µM: TAF 0.160 μM alone; for inhibition at 0.32 µM: TAF 0.320 μM alone
Experimental: In vitro dual agent combination studies were conducted using the method of Prichard and Shipman 1990 (Prichard M N, Shipman C, Jr. 1990. Antiviral Res 14:181-205). The HepDE19 cell culture system is a HepG2 (human hepatocarcinoma) derived cell line that supports HBV DNA replication and cccDNA formation under control the control of a CMV Tet-off promoter system (Guo et al. 2007. J Virol 81:12472-84). HepDE19 (50,000 cells/well) were plated in 96 well collagen-coated tissue-culture treated microtiter plates in DMEM/F12 medium supplemented with 10% fetal bovine serum+1% penicillin-streptomycin with tetracycline (1 μg/mL) and incubated in a humidified incubator at 37° C. and 5% CO2 overnight. Next day, the cells were switched to fresh medium without tetracycline and incubated for 4 hrs at 37° C. and 5% CO2. The cells were switched to fresh medium and treated with inhibitor A and inhibitor B, at concentration range spanning their respective EC50 values. […] The two inhibitors were tested both singly as well as in combinations in a checkerboard fashion such that each concentration of inhibitor A was combined with each concentration of inhibitor B to determine their combination effects on inhibition of rcDNA production. There were four replicates of each concentration combination in each experiment. The plates were incubated for 7 days in a humidified incubator at 37° C. and 5% CO2. The level of rcDNA present in the wells was measured using a Quantigene 2.0 bDNA assay kit (Affymetrix, Santa Clara, Calif.) with HBV specific custom probe set (genotype D ayw) and according to the manufacturer's instructions and read using a luminescence plate reader and the relative luminescence units (RLU) data generated from each well was calculated as % inhibition of the untreated control wells and analyzed using the MacSynergy II program to determine whether the combinations were synergistic, additive or antagonistic using the interpretive guidelines established by Prichard and Shipman (Prichard M N, Shipman C, Jr. 1990. […] Each experiment was repeated at least three times and the averages and standard deviations of individual determinations was calculated to derive the conclusion. Concurrently, in each experiment, the effect of inhibitor combinations on cell viability was assessed using replicate plates in triplicates that were used to determine the ATP content as a measure of cell viability using the Cell-Titer Glo reagent (Promega, Madison, Wis.) as per the manufacturer's instructions.

HBV DNA [1] = experiment: HBV DNA in culture supernatants of HBV-infected PHH by qPCR (Examples 15-17); type: cell-based, HBV genotype D; primary human hepatocytes; conditions: HBV DNA
Experimental: The day PHH seeding date was defined as day 0.
The PHH were infected with 400 HBV GE/cell of D type HBV on day 1.
The test articles were further diluted with the culture medium to the final test concentrations.
All the test articles were further diluted 100 times with the culture medium. The final concentration of DMSO in the culture medium was […].
Four two-way combinations were performed on a 5×5 matrix, in triplicate plates. Transfection reagent was present in all wells.
DNA in the culture supernatants harvested on days 8 was isolated with QIAamp 96 DNA Blood Kit (Qiagen-51162). For each sample, 100 μl of each culture supernatant was used to extract DNA. The DNA was eluted with 180 μl of AE. HBV DNA in the culture supernatants was quantified by quatitative PCR using well-established and commonly used procedures. Percent inhibition of HBV DNA was calculated with the formula below:
% Inh. HBV DNA=[1−value of sample/AVG. value of Medium control]×100.
Results of double combination studies were analyzed using MacSynergy II software (Prichard and Shipman, 1992).

HBV DNA [2] = experiment: as above; type: cell-based, HBV genotype D; primary human hepatocytes; conditions: Hepatitis B virus, determined in an earlier separate experiment
HBsAg = HBsAg in culture supernatants of HBV-infected PHH by ELISA (Examples 15-17); conditions: for AVERAGE % INHIBITION: HBsAg
Experimental: All the test articles were further diluted 100 times with the culture medium. The final concentration of DMSO in the culture medium was 2%.
HBsAg in the culture supernatants harvested on days 8 was measured using the HBsAg/ELISA kit (Autobio) according to the manual. The samples were diluted 4-fold with PBS to get the signal in the range of the standard curve. Percent inhibition of HBsAg was calculated with the following formula:
% Inh. HBsAg=[1−HBsAg quantity of sample/HBV quantity of DMSO control]×100

[3] = HepDE19, Expt 2, read-out: ADDITIVE INHIBITION
[4] = HepDE19, Expt 2, read-out: AVERAGE % INHIBITION
[5] = HepDE19, read-out: AVERAGE % INHIBITION, Expt 1
[6] = HepDE19, read-out: AVERAGE % INHIBITION, Expt 2
[7] = HepDE19, read-out: AVERAGE % INHIBITION, Expt 3
[8] = HepDE19, read-out: AVERAGE % INHIBITION, Expt 4

## CC(C)OC(=O)OCOP(=O)(CO[C@H](C)Cn1cnc2c(N)ncnc21)OCOC(=O)OC(C)C.O=C(O)/C=C/C(=O)O [TDF, tenofovir disoproxil fumarate, reference compound]
HBV rcDNA
  SYNERGY PLOT (99%) Bonferroni Adj. 55%: 0
HBV rcDNA; Expt 1, TDF 0.009 μM alone
  ADDITIVE INHIBITION: −0.25
HBV rcDNA; Expt 1, TDF 0.083 μM alone
  ADDITIVE INHIBITION: 45.88
HBV rcDNA; Expt 1, TDF 0.750 μM alone
  ADDITIVE INHIBITION: 98
HBV rcDNA; Expt 3, TDF 0.009 μM alone
  ADDITIVE INHIBITION: 32.54
HBV rcDNA; Expt 3, TDF 0.083 μM alone
  ADDITIVE INHIBITION: 76.04
HBV rcDNA; Expt 3, TDF 0.750 μM alone
  ADDITIVE INHIBITION: 96.97
HBV rcDNA; HepDE19, Expt 1, TDF 0.009 μM alone
  inhibition at 0.009 µM: -0.25%
HBV rcDNA; HepDE19, Expt 1, TDF 0.083 μM alone
  inhibition at 0.083 µM: 45.9%
HBV rcDNA; HepDE19, Expt 1, TDF 0.750 μM alone
  inhibition at 0.75 µM: 98%
HBV rcDNA; HepDE19, Expt 2, TDF 0.010 μM alone, read-out: ADDITIVE INHIBITION
  inhibition at 0.01 µM: 4.67%
HBV rcDNA; HepDE19, Expt 2, TDF 0.010 μM alone, read-out: AVERAGE % INHIBITION
  inhibition at 0.01 µM: 4.67%
HBV rcDNA; HepDE19, Expt 2, TDF 0.020 μM alone, read-out: ADDITIVE INHIBITION
  inhibition at 0.02 µM: -12.9%
HBV rcDNA; HepDE19, Expt 2, TDF 0.020 μM alone, read-out: AVERAGE % INHIBITION
  inhibition at 0.02 µM: -12.9%
HBV rcDNA; [3]
  inhibition at 0.039 µM: 35.9%
  inhibition at 0.156 µM: 77.1%
  inhibition at 1.25 µM: 98.4%
HBV rcDNA; [4]
  inhibition at 0.039 µM: 35.9%
  inhibition at 0.156 µM: 77.1%
  inhibition at 1.25 µM: 98.4%
HBV rcDNA; HepDE19, Expt 3, TDF 0.009 μM alone
  inhibition at 0.009 µM: 32.5%
HBV rcDNA; HepDE19, Expt 3, TDF 0.083 μM alone
  inhibition at 0.083 µM: 76%
HBV rcDNA; HepDE19, Expt 3, TDF 0.750 μM alone
  inhibition at 0.75 µM: 97%
HBV rcDNA; HepDE19, combination studies with Cmpd 1, read-out: Avg. Inhibitor B EC50
  EC50: 0.064 µM
HBV DNA [1]; TDF 0.12 nM alone
  AVERAGE % INHIBITION: 22.22%
HBV DNA [1]; TDF 10.0 nM alone
  AVERAGE % INHIBITION: 92.76%
HBV DNA [1]; Hepatitis B virus, TDF 0.12 nM alone
  inhibition at 0.00012 µM: 36.1%
HBV DNA [1]; Hepatitis B virus, TDF 0.37 nM alone
  inhibition at 0.00037 µM: 44.6%
HBV DNA [1]; Hepatitis B virus, TDF 10.0 nM alone
  inhibition at 0.01 µM: 92.5%
HBV DNA [2]
  EC50: 0.00042 µM
HBsAg; TDF 0.12 nM alone
  AVERAGE % INHIBITION: −1.47% and −10.84%
HBsAg; TDF 0.37 nM alone
  AVERAGE % INHIBITION: −1.3% and −9.3%
HBsAg; Hepatitis B virus
  EC50: > 0.01 µM

## CC(C)OC(=O)[C@H](C)N[P@](=O)(CO[C@H](C)Cn1cnc2c(N)ncnc21)Oc1ccccc1 [TAF, tenofovir alafenamide]
HBV rcDNA; [5]
  inhibition at 0.002 µM: -55.3%
  inhibition at 0.007 µM: -30.2%
  inhibition at 0.06 µM: 67%
HBV rcDNA; HepDE19, read-out: AVERAGE % INHIBITION, Expt 1, TAF 0.020 μM alone
  inhibition at 0.02 µM: -1.17%
HBV rcDNA; [6]
  inhibition at 0.002 µM: 9.84%
  inhibition at 0.007 µM: 24.9%
  inhibition at 0.06 µM: 89.4%
HBV rcDNA; HepDE19, read-out: AVERAGE % INHIBITION, Expt 2, TAF 0.020 μM alone
  inhibition at 0.02 µM: 65.5%
HBV rcDNA; [7]
  inhibition at 0.001 µM: -134%
  inhibition at 0.003 µM: -49.2%
  inhibition at 0.005 µM: -42.3%
  inhibition at 0.04 µM: 37%
  inhibition at 0.08 µM: 57.1%
  inhibition at 0.16 µM: 88%
  inhibition at 0.32 µM: 94.8%
HBV rcDNA; HepDE19, read-out: AVERAGE % INHIBITION, Expt 3, TAF 0.010 μM alone
  inhibition at 0.01 µM: -48.4%
HBV rcDNA; HepDE19, read-out: AVERAGE % INHIBITION, Expt 3, TAF 0.020 μM alone
  inhibition at 0.02 µM: -34.3%
HBV rcDNA; [8]
  inhibition at 0.001 µM: 9.66%
  inhibition at 0.003 µM: -0.11%
  inhibition at 0.005 µM: -1.36%
  inhibition at 0.04 µM: 61.8%
  inhibition at 0.08 µM: 57.2%
  inhibition at 0.16 µM: 83.6%
  inhibition at 0.32 µM: 95.9%
HBV rcDNA; HepDE19, read-out: AVERAGE % INHIBITION, Expt 4, TAF 0.010 μM alone
  inhibition at 0.01 µM: 0.94%
HBV rcDNA; HepDE19, read-out: AVERAGE % INHIBITION, Expt 4, TAF 0.020 μM alone
  inhibition at 0.02 µM: 36.6%
HBV rcDNA; HepDE19, read-out: Avg. Inhibitor B EC50
  EC50: 0.044 µM

— patent publication US20220168430A1, “THERAPEUTIC METHODS FOR TREATING HEPATITIS B” (priority 2019, published 2022)
